Data from US8716309B2, “Pharmaceutical composition comprising pyridone derivatives” (priority 2011, dated 2014).

Biological target: human α7 nAChR (Homo sapiens, UniProt P36544)
Assay: cell-based
Details: EC50 of human α7nAChR(nM), HEK293T/17 cells transfected with human α7 nAChR; PNU-120596 added; relative to epibatidine 1 μM positive control

Chain of human α7 nAChR (P36544 23-502): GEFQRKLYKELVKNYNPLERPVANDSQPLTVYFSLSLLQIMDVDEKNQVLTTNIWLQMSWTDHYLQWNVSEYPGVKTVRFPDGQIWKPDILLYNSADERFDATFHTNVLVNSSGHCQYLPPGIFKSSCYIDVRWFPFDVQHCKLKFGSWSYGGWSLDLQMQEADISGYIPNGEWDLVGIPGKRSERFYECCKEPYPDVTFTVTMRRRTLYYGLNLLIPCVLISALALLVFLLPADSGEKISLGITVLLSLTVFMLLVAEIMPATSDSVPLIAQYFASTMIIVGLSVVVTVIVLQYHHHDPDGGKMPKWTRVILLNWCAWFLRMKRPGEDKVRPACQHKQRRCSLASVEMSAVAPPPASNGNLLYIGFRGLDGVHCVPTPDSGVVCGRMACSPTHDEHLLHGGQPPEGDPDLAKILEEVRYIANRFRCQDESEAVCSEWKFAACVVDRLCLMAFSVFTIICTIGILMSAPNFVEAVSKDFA

| Compound | EC50 [nM] |
| --- | --- |
| O=C(NC1CN2CCC1CC2)c1ccc(=O)n(-c2ccccc2)c1 (stereo not shown) [Example 1, N-(1-azoniabicyclo[2.2.2]octan-3-yl)-6-oxo-1-phenyl-3-pyridinecarboxamide] | > 1000 |
| O=C(NC1CN2CCC1CC2)c1ccc(=O)n(-c2ccccc2Cl)c1 (stereo not shown) [Example 2, N-(1-azabicyclo[2.2.2]octan-3-yl)-1-(2-chlorophenyl)-6-oxo-3-pyridinecarboxamide] | < 100 |
| O=C(N[C@@H]1CN2CCC1CC2)c1ccc(=O)n(-c2ccc(Cl)cc2)c1 [Example 6, N-[(3S)-1-azabicyclo[2.2.2]octan-3-yl]-1-(4-chlorophenyl)-6-oxopyridine-3-carboxamide] | > 1000 |
| O=C(NC1CN2CCC1CC2)c1ccc(=O)n(-c2ccc(F)cc2)c1 (stereo not shown) [Example 7, N-(1-azabicyclo[2.2.2]octan-3-yl)-1-(4-fluorophenyl)-6-oxo-3-pyridinecarboxamide] | 500 to 1000 |
| Cc1ccccc1-n1cc(C(=O)NC2CN3CCC2CC3)ccc1=O (stereo not shown) [Example 11, N-(1-azabicyclo[2.2.2]octan-3-yl)-1-(2-methylphenyl)-6-oxo-3-pyridinecarboxamide] | > 1000 |
| Cc1ccc(-n2cc(C(=O)NC3CN4CCC3CC4)ccc2=O)cc1 (stereo not shown) [Example 12, N-(1-azabicyclo[2.2.2]octan-3-yl)-1-(4-methylphenyl)-6-oxo-3-pyridinecarboxamide] | 500 to 1000 |
| CCc1ccc(-n2cc(C(=O)NC3CN4CCC3CC4)ccc2=O)cc1 (stereo not shown) [Example 14, N-(1-azabicyclo[2.2.2]octan-3-yl)-1-(4-ethylphenyl)-6-oxo-3-pyridinecarboxamide] | 500 to 1000 |
| CCCc1ccc(-n2cc(C(=O)NC3CN4CCC3CC4)ccc2=O)cc1 (stereo not shown) [Example 15, N-(1-azabicyclo[2.2.2]octan-3-yl)-6-oxo-1-(4-propylphenyl)-3-pyridinecarboxamide] | 500 to 1000 |
| CC(C)c1ccc(-n2cc(C(=O)NC3CN4CCC3CC4)ccc2=O)cc1 (stereo not shown) [Example 17, N-(1-azabicyclo[2.2.2]octan-3-yl)-6-oxo-1-(4-propan-2-ylphenyl)-3-pyridinecarboxamide] | 500 to 1000 |
| O=C(NC1CN2CCC1CC2)c1ccc(=O)n(-c2ccc(C3CCCCC3)cc2)c1 (stereo not shown) [Example 18, N-(1-azabicyclo[2.2.2]octan-3-yl)-1-(4-cyclohexylphenyl)-6-oxo-3-pyridinecarboxamide] | 500 to 1000 |
| COc1ccccc1-n1cc(C(=O)NC2CN3CCC2CC3)ccc1=O (stereo not shown) [Example 20, N-(1-azabicyclo[2.2.2]octan-3-yl)-1-(2-methoxyphenyl)-6-oxo-3-pyridinecarboxamide] | 500 to 1000 |
| Cc1ccc(-n2cc(C(=O)NC3CN4CCC3CC4)ccc2=O)c(Cl)c1 (stereo not shown) [Example 29, N-(1-azabicyclo[2.2.2]octan-3-yl)-1-(2-chloro-4-methylphenyl)-6-oxo-3-pyridinecarboxamide] | > 1000 |
| Cc1ccc(-n2cc(C(=O)NC3CN4CCC3CC4)ccc2=O)c(C)c1 (stereo not shown) [Example 32, N-(1-azabicyclo[2.2.2]octan-3-yl)-1-(2,4-dimethylphenyl)-6-oxo-3-pyridinecarboxamide] | > 1000 |
| CC(C)(C)c1ccc(-n2cc(C(=O)NC3CN4CCC3CC4)ccc2=O)c(Cl)c1 (stereo not shown) [Example 36, N-(1-azabicyclo[2.2.2]octan-3-yl)-1-(4-tert-butyl-2-chlorophenyl)-6-oxo-3-pyridinecarboxamide] | 100 to 500 |
| O=C(NC1CN2CCC1CC2)c1ccc(=O)n(-c2ccc(Cl)cc2F)c1 (stereo not shown) [Example 38, N-(1-azabicyclo[2.2.2]octan-3-yl)-1-(4-chloro-2-fluorophenyl)-6-oxo-3-pyridinecarboxamide] | 100 to 500 |
| O=C(NC1CN2CCC1CC2)c1ccc(=O)n(-c2cccc(Cl)c2Cl)c1 (stereo not shown) [Example 46, N-(1-azabicyclo[2.2.2]octan-3-yl)-1-(2,3-dichlorophenyl)-6-oxo-3-pyridinecarboxamide] | 100 to 500 |
| COc1ccc(-n2cc(C(=O)NC3CN4CCC3CC4)ccc2=O)c(OC)c1 (stereo not shown) [Example 49, N-(1-azabicyclo[2.2.2]octan-3-yl)-1-(2,4-dimethoxyphenyl)-6-oxo-3-pyridinecarboxamide] | 100 to 500 |
| COc1ccc(Cl)cc1-n1cc(C(=O)NC2CN3CCC2CC3)ccc1=O (stereo not shown) [Example 56, N-(1-azabicyclo[2.2.2]octan-3-yl)-1-(5-chloro-2-methoxyphenyl)-6-oxo-3-pyridinecarboxamide] | 500 to 1000 |
| O=C(NC1CN2CCC1CC2)c1ccc(=O)n(-c2ccc(OC(F)(F)F)cc2Cl)c1 (stereo not shown) [Example 57, N-(1-azabicyclo[2.2.2]octan-3-yl)-1-[2-chloro-4-(trifluoromethoxy)phenyl]-6-oxo-3-pyridinecarboxamide] | 100 to 500 |
| O=C(NC1CN2CCC1CC2)c1ccc(=O)n(-c2cc(Cl)c(Cl)cc2Cl)c1 (stereo not shown) [Example 60, N-(1-azabicyclo[2.2.2]octan-3-yl)-1-(2,4,5-trichlorophenyl)-6-oxo-3-pyridinecarboxamide] | 500 to 1000 |

| Compound | EC50 [nM] |
| --- | --- |
| O=C(NC1CN2CCC1CC2)c1ccc(=O)n(-c2ccccc2OCc2ccccc2)c1 (stereo not shown) [Example 63, N-(1-azabicyclo[2.2.2]octan-3-yl)-6-oxo-1-(2-phenylmethoxyphenyl)-3-pyridinecarboxamide] | > 1000 |
| O=C(NC1CN2CCC1CC2)c1ccc(=O)n(-c2ccc(-c3ccc(Cl)cc3)cc2)c1 (stereo not shown) [Example 67, N-(1-azabicyclo[2.2.2]octan-3-yl)-1-[4-(4-chlorophenyl)phenyl]-6-oxo-3-pyridinecarboxamide] | 500 to 1000 |
| Cc1ccc(-c2ccc(-n3cc(C(=O)NC4CN5CCC4CC5)ccc3=O)cc2)cc1 (stereo not shown) [Example 69, N-(1-azabicyclo[2.2.2]octan-3-yl)-1-[4-(4-methylphenyl)phenyl]-6-oxo-3-pyridinecarboxamide] | 100 to 500 |
| O=C(NC1CN2CCC1CC2)c1ccc(=O)n(-c2ccc(-c3ccccc3)cc2Cl)c1 (stereo not shown) [Example 70, N-(1-azabicyclo[2.2.2]octan-3-yl)-1-(2-chloro-4-phenylphenyl)-6-oxo-3-pyridinecarboxamide] | 100 to 500 |
| O=C(NC1CN2CCC1CC2)c1ccc(=O)n(-c2ccc(Oc3ccc(Cl)cc3)cc2)c1 (stereo not shown) [Example 71, N-(1-azabicyclo[2.2.2]octan-3-yl)-1-[4-(4-chlorophenoxy)phenyl]-6-oxo-3-pyridinecarboxamide] | 100 to 500 |
| Cc1ccc(Oc2ccc(-n3cc(C(=O)NC4CN5CCC4CC5)ccc3=O)cc2)cc1 (stereo not shown) [Example 72, N-(1-azabicyclo[2.2.2]octan-3-yl)-1-[4-(4-methylphenoxy)phenyl]-6-oxo-3-pyridinecarboxamide] | 100 to 500 |
| O=C(NC1CN2CCC1CC2)c1ccc(=O)n(-c2ccc(Oc3ccccc3)cc2)c1 (stereo not shown) [Example 73, N-(1-azabicyclo[2.2.2]octan-3-yl)-6-oxo-1-(4-phenoxyphenyl)-3-pyridinecarboxamide] | 500 to 1000 |
| O=C(NC1CN2CCC1CC2)c1ccc(=O)n(-c2ccccc2Oc2ccccc2)c1 (stereo not shown) [Example 74, N-(1-azabicyclo[2.2.2]octan-3-yl)-6-oxo-1-(2-phenoxyphenyl)-3-pyridinecarboxamide] | 100 to 500 |
| CSc1ccc(-n2cc(C(=O)NC3CN4CCC3CC4)ccc2=O)cc1 (stereo not shown) [Example 76, N-(1-azabicyclo[2.2.2]octan-3-yl)-1-[4-(methylthio)phenyl]-6-oxo-3-pyridinecarboxamide] | 100 to 500 |
| CSc1ccccc1-n1cc(C(=O)N[C@H]2CN3CCC2CC3)ccc1=O [Example 78, N-[(3R)-1-azabicyclo[2.2.2]octan-3-yl]-1-[2-(methylthio)phenyl]-6-oxo-3-pyridinecarboxamide] | < 100 |
| CSc1ccccc1-n1cc(C(=O)N[C@@H]2CN3CCC2CC3)ccc1=O [Example 79, N-[(3S)-1-azabicyclo[2.2.2]octan-3-yl]-1-[2-(methylthio)phenyl]-6-oxo-3-pyridinecarboxamide] | 100 to 500 |
| CCSc1ccccc1-n1cc(C(=O)NC2CN3CCC2CC3)ccc1=O (stereo not shown) [Example 80, N-(1-azabicyclo[2.2.2]octan-3-yl)-1-[2-(ethylthio)phenyl]-6-oxo-3-pyridinecarboxamide] | < 100 |
| CC(C)Sc1ccccc1-n1cc(C(=O)NC2CN3CCC2CC3)ccc1=O (stereo not shown) [Example 81, N-(1-azabicyclo[2.2.2]octan-3-yl)-6-oxo-1-[2-(propan-2-ylthio)phenyl]-3-pyridinecarboxamide] | 100 to 500 |
| O=C(NC1CN2CCC1CC2)c1ccc(=O)n(-c2ccccc2SCc2ccccc2)c1 (stereo not shown) [Example 82, N-(1-azabicyclo[2.2.2]octan-3-yl)-6-oxo-1-[2-(phenylmethylthio)phenyl]-3-pyridinecarboxamide] | 100 to 500 |
| CSc1ccc(C(F)(F)F)cc1-n1cc(C(=O)NC2CN3CCC2CC3)ccc1=O (stereo not shown) [Example 83, N-(1-azabicyclo[2.2.2]octan-3-yl)-1-[2-(methylthio)-5-(trifluoromethyl)phenyl]-6-oxo-3-pyridinecarboxamide] | 500 to 1000 |
| CCSc1cc(OC)ccc1-n1cc(C(=O)NC2CN3CCC2CC3)ccc1=O (stereo not shown) [Example 85, N-(1-azabicyclo[2.2.2]octan-3-yl)-1-[2-(ethylthio)-4-methoxyphenyl]-6-oxo-3-pyridinecarboxamide] | < 100 |
| CSc1cc(Cl)ccc1-n1cc(C(=O)N[C@H]2CN3CCC2CC3)ccc1=O [Example 87, N-[(3R)-1-azabicyclo[2.2.2]octan-3-yl]-1-[4-chloro-2-(methylthio)phenyl]-6-oxo-3-pyridinecarboxamide] | < 100 |
| CSc1cc(Cl)ccc1-n1cc(C(=O)N[C@@H]2CN3CCC2CC3)ccc1=O [Example 88, N-[(3S)-1-azabicyclo[2.2.2]octan-3-yl]-1-[4-chloro-2-(methylthio)phenyl]-6-oxo-3-pyridinecarboxamide] | 100 to 500 |
| CSc1cc(C)ccc1-n1cc(C(=O)N[C@H]2CN3CCC2CC3)ccc1=O [Example 90, N-[(3R)-1-azabicyclo[2.2.2]octan-3-yl]-1-[4-methyl-2-(methylthio)phenyl]-6-oxo-3-pyridinecarboxamide] | < 100 |
| CC(C)Sc1cc(Cl)ccc1-n1cc(C(=O)NC2CN3CCC2CC3)ccc1=O (stereo not shown) [Example 93, N-(1-azabicyclo[2.2.2]octan-3-yl)-1-[4-chloro-2-(propan-2-ylthio)phenyl]-6-oxo-3-pyridinecarboxamide] | 100 to 500 |
